Data: patent US10004701B2, “Methods and compositions for treating infection” (UNIVERSITY OF ROCHESTER, priority 2012, dated 2018)
Counter-ions that a name gives are not always drawn. Like-named read-outs stand apart in the source and are kept apart here.

Legend:
Experiment in all cases: AK assay 384-well format, Prestwick library screening
[1] = tested on: A. baumannii strain 98-37-09; type: cell-based, Acinetobacter baumannii; conditions: Acinetobacter baumannii, 983709, 3 h, 50 μM final drug concentration
[2] = tested on: S. aureus strain USA300-0114; type: cell-based, Staphylococcus aureus; conditions: Staphylococcus aureus, USA300, 3 h, 50 μM final drug concentration
K. pneumoniae = type: cell-based, Klebsiella pneumoniae; conditions: Klebsiella pneumoniae, 3 h, 50 μM final drug concentration
E. faecium = type: cell-based, Enterococcus faecium; conditions: Enterococcus faecium, 3 h, 50 μM final drug concentration
E. coli = type: cell-based, Escherichia coli; conditions: Escherichia coli, 3 h, 50 μM final drug concentration
P. aeruginosa = type: cell-based, Pseudomonas aeruginosa; conditions: Pseudomonas aeruginosa, 3 h, 50 μM final drug concentration
E. cloacae = type: cell-based, Enterobacter cloacae; conditions: Enterobacter cloacae, 3 h, 50 μM final drug concentration
[3] = planktonic, […], read-out: AK-based Prestwick Library Screening Results, A. baumannii (fold increase in extracellular AK activity)
[4] = planktonic, […], read-out: AK-based Prestwick Library Screening Results, S. aureus (fold increase in extracellular AK activity)
[5] = planktonic, […], read-out: AK-based Prestwick Library Screening Results, K. pneumoniae (fold increase in extracellular AK activity)
[6] = planktonic, […], read-out: AK-based Prestwick Library Screening Results, E. faecium (fold increase in extracellular AK activity)
[7] = planktonic, […], read-out: AK-based Prestwick Library Screening Results, E. coli (fold increase in extracellular AK activity)
[8] = planktonic, […], read-out: AK-based Prestwick Library Screening Results, P. aeruginosa (fold increase in extracellular AK activity)
[9] = planktonic, […], read-out: AK-based Prestwick Library Screening Results, E. cloacae (fold increase in extracellular AK activity)

COc1ccc(C[C@H](N)C(=O)N[C@H]2[C@@H](O)[C@H](n3cnc4c(N(C)C)ncnc43)O[C@@H]2CO)cc1 [Puromycin dihydrochloride]
fold induction at 50 µM ([1]; planktonic, cutoff for positive 3-fold increase, read-out: AK-based Prestwick Library Screening Results, A. baumannii (fold increase in extracellular AK activity)): 1.6
fold induction at 50 µM ([2]; planktonic, cutoff for positive 3-fold increase, read-out: AK-based Prestwick Library Screening Results, S. aureus (fold increase in extracellular AK activity)): 1.1
fold induction at 50 µM (K. pneumoniae; planktonic, cutoff for positive 3-fold increase, read-out: AK-based Prestwick Library Screening Results, K. pneumoniae (fold increase in extracellular AK activity)): 1.1
fold induction at 50 µM (E. faecium; planktonic, cutoff for positive 3-fold increase, read-out: AK-based Prestwick Library Screening Results, E. faecium (fold increase in extracellular AK activity)): 1.1
fold induction at 50 µM (E. coli; planktonic, cutoff for positive 3-fold increase, read-out: AK-based Prestwick Library Screening Results, E. coli (fold increase in extracellular AK activity)): 1.1
fold induction at 50 µM (P. aeruginosa; planktonic, cutoff for positive 3-fold increase, read-out: AK-based Prestwick Library Screening Results, P. aeruginosa (fold increase in extracellular AK activity)): 1
fold induction at 50 µM (E. cloacae; planktonic, cutoff for positive 3-fold increase, read-out: AK-based Prestwick Library Screening Results, E. cloacae (fold increase in extracellular AK activity)): 1.4

NC(=O)c1cnccn1 [Pyrazinamide]
fold induction at 50 µM ([1]; planktonic A. baumannii, cutoff for positive-scoring molecules 3-fold increase, read-out: AK-based Prestwick Library Screening Results, A. baumannii (increase in extracellular AK activity)): 0.9
fold induction at 50 µM ([2]; planktonic S. aureus, cutoff for positive-scoring molecules 3-fold increase, read-out: AK-based Prestwick Library Screening Results, S. aureus (increase in extracellular AK activity)): 0.7
fold induction at 50 µM (K. pneumoniae; planktonic K. pneumoniae, cutoff for positive-scoring molecules 3-fold increase, read-out: AK-based Prestwick Library Screening Results, K. pneumoniae (increase in extracellular AK activity)): 0.8
fold induction at 50 µM (E. faecium; planktonic E. faecium, cutoff for positive-scoring molecules 3-fold increase, read-out: AK-based Prestwick Library Screening Results, E. faecium (increase in extracellular AK activity)): 0.8
fold induction at 50 µM (E. coli; planktonic E. coli, cutoff for positive-scoring molecules 3-fold increase, read-out: AK-based Prestwick Library Screening Results, E. coli (increase in extracellular AK activity)): 0.9
fold induction at 50 µM (P. aeruginosa; planktonic P. aeruginosa, cutoff for positive-scoring molecules 3-fold increase, read-out: AK-based Prestwick Library Screening Results, P. aeruginosa (increase in extracellular AK activity)): 0.8
fold induction at 50 µM (E. cloacae; planktonic E. cloacae, cutoff for positive-scoring molecules 3-fold increase, read-out: AK-based Prestwick Library Screening Results, E. cloacae (increase in extracellular AK activity)): 1.2

Cc1ncc(CO)c(CO)c1O [Pyridoxine hydrochloride]
fold induction at 50 µM [1, 3]: 1.4
fold induction at 50 µM [2, 4]: 1.3
fold induction at 50 µM (K. pneumoniae; [5]): 1.1
fold induction at 50 µM (E. faecium; [6]): 1
fold induction at 50 µM (E. coli; [7]): 1.4
fold induction at 50 µM (P. aeruginosa; [8]): 1.2
fold induction at 50 µM (E. cloacae; [9]): 1.7

COc1ccc(CN(CCN(C)C)c2ccccn2)cc1 [Pyrilamine maleate]
fold induction at 50 µM ([1]; planktonic A. baumannii, 384-well, […], read-out: AK-based Prestwick Library Screening Results: A. baumannii (increase in extracellular AK activity)): 1.1
fold induction at 50 µM ([2]; planktonic S. aureus, 384-well, […], read-out: AK-based Prestwick Library Screening Results: S. aureus (increase in extracellular AK activity)): 1.4
fold induction at 50 µM (K. pneumoniae; planktonic K. pneumoniae, 384-well, […], read-out: AK-based Prestwick Library Screening Results: K. pneumoniae (increase in extracellular AK activity)): 1
fold induction at 50 µM (E. faecium; planktonic E. faecium, 384-well, […], read-out: AK-based Prestwick Library Screening Results: E. faecium (increase in extracellular AK activity)): 1.2
fold induction at 50 µM (E. coli; planktonic E. coli, 384-well, […], read-out: AK-based Prestwick Library Screening Results: E. coli (increase in extracellular AK activity)): 1.4
fold induction at 50 µM (P. aeruginosa; planktonic P. aeruginosa, 384-well, […], read-out: AK-based Prestwick Library Screening Results: P. aeruginosa (increase in extracellular AK activity)): 1.1
fold induction at 50 µM (E. cloacae; planktonic E. cloacae, 384-well, […], read-out: AK-based Prestwick Library Screening Results: E. cloacae (increase in extracellular AK activity)): 1.4

CCc1nc(N)nc(N)c1-c1ccc(Cl)cc1 [Pyrimethamine]
fold induction at 50 µM ([1]; 384-well format, cutoff for positive-scoring molecules 3-fold increase, read-out: AK-based Prestwick Library Screening Results, A. baumannii (increase in extracellular AK activity)): 2.5
fold induction at 50 µM ([2]; 384-well format, cutoff for positive-scoring molecules 3-fold increase, read-out: AK-based Prestwick Library Screening Results, S. aureus (increase in extracellular AK activity)): 0.7
fold induction at 50 µM (K. pneumoniae; 384-well format, cutoff for positive-scoring molecules 3-fold increase, read-out: AK-based Prestwick Library Screening Results, K. pneumoniae (increase in extracellular AK activity)): 0.7
fold induction at 50 µM (E. faecium; 384-well format, cutoff for positive-scoring molecules 3-fold increase, read-out: AK-based Prestwick Library Screening Results, E. faecium (increase in extracellular AK activity)): 1
fold induction at 50 µM (E. coli; 384-well format, cutoff for positive-scoring molecules 3-fold increase, read-out: AK-based Prestwick Library Screening Results, E. coli (increase in extracellular AK activity)): 1.4
fold induction at 50 µM (P. aeruginosa; 384-well format, cutoff for positive-scoring molecules 3-fold increase, read-out: AK-based Prestwick Library Screening Results, P. aeruginosa (increase in extracellular AK activity)): 0.9
fold induction at 50 µM (E. cloacae; 384-well format, cutoff for positive-scoring molecules 3-fold increase, read-out: AK-based Prestwick Library Screening Results, E. cloacae (increase in extracellular AK activity)): 1.3

CCC1(CC)C(=O)C=CNC1=O [Pyrithyldione]
fold induction at 50 µM [1, 3]: 0.5
fold induction at 50 µM [2, 4]: 0.6
fold induction at 50 µM (K. pneumoniae; [5]): 0.6
fold induction at 50 µM (E. faecium; [6]): 0.8
fold induction at 50 µM (E. coli; [7]): 0.7
fold induction at 50 µM (P. aeruginosa; [8]): 0.6
fold induction at 50 µM (E. cloacae; [9]): 0.7

Cc1cc(/C=C/c2ccc3cc(N(C)C)ccc3[n+]2C)c(C)n1-c1ccccc1 [Pyrvinium pamoate]
fold induction at 50 µM ([1]; planktonic A. baumannii, positive cutoff 3-fold increase, read-out: AK-based Prestwick library screening result, A. baumannii (fold increase in extracellular AK activity)): 0.9
fold induction at 50 µM ([2]; planktonic S. aureus, positive cutoff 3-fold increase, read-out: AK-based Prestwick library screening result, S. aureus (fold increase in extracellular AK activity)): 1.4
fold induction at 50 µM (K. pneumoniae; planktonic K. pneumoniae, positive cutoff 3-fold increase, read-out: AK-based Prestwick library screening result, K. pneumoniae (fold increase in extracellular AK activity)): 0.8
fold induction at 50 µM (E. faecium; planktonic E. faecium, positive cutoff 3-fold increase, read-out: AK-based Prestwick library screening result, E. faecium (fold increase in extracellular AK activity)): 1.5
fold induction at 50 µM (E. coli; planktonic E. coli, positive cutoff 3-fold increase, read-out: AK-based Prestwick library screening result, E. coli (fold increase in extracellular AK activity)): 0.8
fold induction at 50 µM (P. aeruginosa; planktonic P. aeruginosa, positive cutoff 3-fold increase, read-out: AK-based Prestwick library screening result, P. aeruginosa (fold increase in extracellular AK activity)): 0.7
fold induction at 50 µM (E. cloacae; planktonic E. cloacae, positive cutoff 3-fold increase, read-out: AK-based Prestwick library screening result, E. cloacae (fold increase in extracellular AK activity)): 13.2

O=c1c(O)c(-c2ccc(O)c(O)c2)oc2cc(O)cc(O)c12 [Quercetine dihydrate]
fold induction at 50 µM ([1]; planktonic A. baumannii, […], read-out: AK-based Prestwick Library Screening Results, A. baumannii (increase in extracellular AK activity)): 0.4
fold induction at 50 µM ([2]; planktonic S. aureus, […], read-out: AK-based Prestwick Library Screening Results, S. aureus (increase in extracellular AK activity)): 0.1
fold induction at 50 µM (K. pneumoniae; planktonic K. pneumoniae, […], read-out: AK-based Prestwick Library Screening Results, K. pneumoniae (increase in extracellular AK activity)): 0.6
fold induction at 50 µM (E. faecium; planktonic E. faecium, […], read-out: AK-based Prestwick Library Screening Results, E. faecium (increase in extracellular AK activity)): 0.8
fold induction at 50 µM (E. coli; planktonic E. coli, […], read-out: AK-based Prestwick Library Screening Results, E. coli (increase in extracellular AK activity)): 0.7
fold induction at 50 µM (P. aeruginosa; planktonic P. aeruginosa, […], read-out: AK-based Prestwick Library Screening Results, P. aeruginosa (increase in extracellular AK activity)): 0.6
fold induction at 50 µM (E. cloacae; planktonic E. cloacae, […], read-out: AK-based Prestwick Library Screening Results, E. cloacae (increase in extracellular AK activity)): 0.9
